Data taken from patent US4564613A, “Pyridoindole derivatives, compositions and use” (Troponwerke GmbH & Co., priority 1983, dated 1986).

Columns and labels:
[1] = tested on: ptosis in mice induced by tetrabenazine; assay: Tetrabenazine antagonism (ptosis in mice induced by tetrabenazine); type: in vivo; conditions: Mus musculus, ip, compound intraperitoneally, 20 mg/kg of tetrabenazine intraperitoneally, read-out: ED50 (dose at which the ptosis induced by tetrabenazine is reduced to 50%)
Protocol: (§1) Some test results for the new compounds of the general formula I which were tested for anxiolytic, nootropic and antidepressive properties are given below. The pilot tests used were inhibition of footshock induced aggression (Tedeschi et al., J. Pharmacol. Exp. Ther. 129, p. 28-34, 1954), for the anxiolytic action and the antitetrabenazine test (J. L. Howard et al., in: Antidepressants: Neurochemical, Behavioral and Clinical Perspectives, edited by S. J. Enna et al., Raven Press N.Y., pages 107-120, 1981) and amphetamine potentiation test (J. L. Howard et al., in: Antidepressants: Neurochemical, Behavioral and Clinical Perspectives, edited by S. J. Enna et al., Raven Press N.Y., pages 107-120, 1981) for the antidepressive action.
Substances having an antidepressive action antagonize the ptosis in mice induced by tetrabenazine. The ED50 value indicates the dose at which the ptosis induced by 20 mg/kg of tetrabenazine intraperitoneally is reduced to 50%.

[2] = tested on: amphetamine-induced stereotype behavior in rats; assay: Amphetamine potentiation (amphetamine-induced stereotype behavior in rats); type: in vivo; conditions: Rattus norvegicus, ip, compound intraperitoneally, 2 mg/kg of DL-amphetamine sulphate intravenous, read-out: ED50 (dose at which the amphetamine-induced behavior is intensified by 50%)
Protocol: as §1
Substances having an antidepressive action potentiate the amphetamine-induced stereotype behavior in rats.
The ED50 value given is the dose at which the amphetamine-induced behavior is intensified by 50% following intravenous administration of 2 mg/kg of DL-amphetamine sulphate.

Structure (SMILES) | ED50 [1] | ED50 [2]
CN1Cc2c(ccc3c2NC(=O)C3=O)C(c2ccccc2)C1 (centres unmarked) [1 b] | 2 mg/kg | 
CN1Cc2c(ccc3c2NCC3)C(c2ccccc2)C1 (centres unmarked) [3 a] | 0.1 mg/kg | 1.2 mg/kg
CN1Cc2c(ccc3c2NCC3)C(c2ccc(F)cc2)C1 (centres unmarked) [3 b] | 0.01 mg/kg | 2.2 mg/kg
CN1Cc2c(ccc3cc[nH]c23)C(c2ccccc2)C1 (centres unmarked) [2 a] | 0.3 mg/kg | 2.4 mg/kg
CN1Cc2c(ccc3cc[nH]c23)C(c2ccc(F)cc2)C1 (centres unmarked) [2 b] | 0.2 mg/kg | 3.9 mg/kg
CN1Cc2c(ccc3c2N(C)CC3)C(c2ccc(F)cc2)C1 (centres unmarked) [Compound 4, 1,8-Dimethyl-6-(fluorophenyl)-2,3,6,7,8,9-hexahydro-1H-pyrido[4,3-g]indole] | 0.01 mg/kg | 
CN1Cc2c(ccc3c2NC(=O)C3=O)C(c2ccc(F)cc2)C1 (centres unmarked) [1 a] | 1 mg/kg | 
